The text below walks through data of patent US20230271949A1, “GLP-1R MODULATING COMPOUNDS” (ASCLETIS BIOSCIENCE CO., LTD., priority 2022, published 2023).

Chain of GLP-1R (P43220 24-463): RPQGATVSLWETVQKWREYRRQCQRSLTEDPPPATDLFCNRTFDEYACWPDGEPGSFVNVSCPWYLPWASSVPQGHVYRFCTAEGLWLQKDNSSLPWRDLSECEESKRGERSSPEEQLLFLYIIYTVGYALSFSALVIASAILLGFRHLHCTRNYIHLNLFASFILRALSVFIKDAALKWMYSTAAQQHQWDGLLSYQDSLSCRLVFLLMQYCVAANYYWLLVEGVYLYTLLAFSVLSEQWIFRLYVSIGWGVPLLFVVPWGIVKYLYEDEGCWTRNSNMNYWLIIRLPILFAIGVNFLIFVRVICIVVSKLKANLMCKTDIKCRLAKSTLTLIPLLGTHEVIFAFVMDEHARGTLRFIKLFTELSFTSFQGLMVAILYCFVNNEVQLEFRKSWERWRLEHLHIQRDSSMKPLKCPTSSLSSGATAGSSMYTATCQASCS

This assay has as its target GLP-1R (Homo sapiens, UniProt P43220). In words: GLP-1R agonist cAMP stimulation assay (HTRF cAMP). It counts as cell-based. The settings on record: HEK293 cell line expressing GLP-1 target; HTRF cAMP agonist mode, 30 min at RT. Summed up: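 GLP-1R-expressing cells were stimulated with 10-point, 3-fold compound dilutions for 30 min at RT; HTRF cAMP detection reagents were then added for 60 min and the 665/615 ratio read. Ratios were converted to cAMP via a standard curve and % activity scaled between DMSO and top-concentration GLP-1(7-37) reference wells.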
In turn, `CC(C)c1n[nH]c2ccc(C(=O)Nc3ccc4c(c3)nc(CN3CCC(c5cccc6c5OC(C)(c5ccc(C#N)cc5F)O6)CC3)n4CC3CCO3)cc12` (centres unmarked) [Compound 347] had an EC50 of 0.81 nM.

The compound `Cc1n[nH]c2ccc(NC(=O)c3ccc4c(n3)nc(CN3CC=C(c5cccc(OCc6ccc(Cl)cc6F)n5)CC3)n4C[C@@H]3CCO3)cc12` [Compound 136] came in with an EC50 of 2.19 nM.

Regarding `Cc1cc(C(=O)Nc2ccc3c(c2)nc(CN2CC=C(c4cccc(OCc5ccc(Cl)cc5F)n4)CC2)n3C[C@@H]2CCO2)cc2c(C(F)F)n[nH]c12` [Compound 217], the EC50 came out at 0.79 nM. This EC50 is about 2.8-fold lower than that of the compound before.

`Cc1cc(NC(=O)c2ccc3c(c2)nc(CN2CC=C(c4cccc(OCc5cc(F)c(C#N)s5)n4)CC2)n3C[C@@H]2CCO2)cc2c(C(F)(F)F)n[nH]c12` [Compound 365] gave an EC50 of 1.32 nM.

In turn, `Cc1n[nH]c2c(F)cc(C(=O)Nc3ccc4c(c3)nc(CN3CC=C(c5cccc(OCc6ccc(C#N)cc6F)n5)CC3)n4C[C@@H]3CCO3)cc12` [Compound 225] came in with a 50% effective concentration (EC50) of 0.18 nM.

`O=C(N[C@@H](Cc1ccc(O)cc1)C(=O)O)c1ccc2c(c1)nc(CN1CCC(c3cccc(OCc4ccc(Cl)cc4F)n3)CC1)n2C[C@@H]1CCO1` [Compound 51] returned an EC50 of 134 nM.

Turning to `O=C(NCC(=O)N1CC[C@H](O)C1)c1ccc2c(c1)nc(CN1CCC(c3cccc(OCc4ccc(Cl)cc4F)n3)CC1)n2C[C@@H]1CCO1` [Compound 70], the EC50 stood at 1.9 nM. Against the preceding compound, the EC50 is about 71-fold lower.

With `Cc1n[nH]c2c(F)cc(NC(=O)c3cc4c(nc(CN5CC=C(c6cccc(OCc7ccc(Cl)cn7)n6)CC5)n4C[C@@H]4CCO4)s3)cc12` [Compound 406], it took 99.2 nM to reach a half-maximal effect (EC50).

Regarding `Cc1n[nH]c2ncc(NC(=O)c3ccc4c(c3)nc(CN3CCC(c5cccc(OCc6ccc(Cl)cc6F)n5)CC3)n4C[C@@H]3CCO3)cc12` [Compound 79], it took 76.5 nM to reach a half-maximal effect (EC50).

`O=C(Nc1ccc2c(c1)nc(CN1CC=C(c3cccc(OCc4ccc(Cl)cc4F)n3)CC1)n2CC1CCO1)c1ccn2ncc(Cl)c2c1` (centres unmarked) [Compound 206] had an EC50 of 5.91 nM.

Take `COCCn1c(CN2CCC(c3cccc(OCc4ccc(Cl)cc4F)n3)CC2)nc2cc(C(=O)N3Cc4[nH]nc(N)c4C3)ccc21` [Compound 26]: the EC50 was over 10000 nM.

As to `N#Cc1ccc(COc2cccc(C3=CCN(Cc4nc5cc(C(=O)Nc6cc(F)c7c(c6)C6(CC6)C(=O)N7)ccc5n4C[C@@H]4CCO4)CC3)n2)c(F)c1` [Compound 179], the EC50 was determined as 0.76 nM.

`Cc1n[nH]c2c(F)cc(C(=O)Nc3ccc4c(c3)nc(CN3CCC(c5cccc(OCc6cc(F)c(C#N)s6)n5)CC3)n4C[C@@H]3CCO3)cc12` [Compound 374]: the EC50 was determined as 0.55 nM.

`CC1(c2ccc(Cl)cc2F)Oc2cccc(C3=CCN(Cc4nc5cc(NC(=O)c6cc(F)c7c(c6)C6(CC6)C(=O)N7)ccc5n4C[C@@H]4CCO4)CC3)c2O1` (some centres unmarked) [Compound 314] came in with an EC50 of 0.63 nM.

`O=C(Nc1ccc2[nH]nc(Cl)c2c1)c1ccc2nc(CN3CC=C(c4cccc(OCc5ccc(Cl)cc5F)n4)CC3)n(CC3CCO3)c2c1` (centres unmarked) [Compound 269] gave an EC50 of 10.8 nM.

For `O=C(Nc1ccc2c(c1)C1(CC1)C(=O)N2)c1ccc2nc(CN3CC=C(c4cccc(OCc5ccc(Cl)cc5F)n4)CC3)n(C[C@@H]3CCO3)c2c1` [Compound 266], it took 3.19 nM to reach a half-maximal effect (EC50).

The compound `CCc1n[nH]c2ccc(C(=O)Nc3ccc4c(c3)nc(CN3CC=C(c5cccc6c5OC(C)(c5ccc(C#N)cc5F)O6)CC3)n4CC3CCO3)cc12` (centres unmarked) [Compound 310] yielded an EC50 of 0.93 nM.

In turn, `COCCn1c(Cc2ccc(-c3cccc(OCc4ccc(C#N)cc4F)n3)cc2)nc2cc(C(=O)NCCc3ccc(C(=O)NCCc4ccc(C(=O)O)cc4)cc3)ccc21` [Compound 10] yielded an EC50 of 993 nM. This EC50 lies about 1100-fold higher than the previous one.

The compound `O=C(Nc1ccn2ncc(Cl)c2c1)c1ccc2c(c1)nc(CN1CC=C(c3cccc(OCc4ccc(Cl)cc4F)n3)CC1)n2CC1CCO1` (centres unmarked) [Compound 149] showed an EC50 of 34.6 nM.

As for `COCCn1c(CN2CCC(c3cccc(OCc4ccc(Cl)cc4F)n3)CC2)nc2cc(C(=O)NCCc3nc4ccccc4[nH]3)ccc21` [Compound 22], a half-maximal effect (EC50) was put at 1370 nM.

`COCCn1c(Cc2ccc(-c3cccc(OCc4ccc(C#N)cc4F)n3)cc2-c2nccn2C)nc2cc(C(=O)NCCc3ccc(S(N)(=O)=O)cc3)ccc21` [Compound 29] came in with an EC50 of over 10000 nM.

Take `COCCn1c(CN2CCC(c3cccc(OCc4ccc(Cl)cc4F)n3)CC2)nc2cc(C(=O)NCCCc3ccc(O)cc3)ccc21` [Compound 25]: the EC50 was 756 nM.

As for `Cc1cc(C(=O)Nc2ccc3c(c2)nc(CN2CC=C(c4cccc(OCc5ccc(Cl)cc5F)n4)CC2)n3C[C@@H]2CCO2)cc2cn[nH]c12` [Compound 199], the EC50 was determined as 0.47 nM.

For the compound `O=C(NCC(=O)N1C[C@@H](O)C[C@H]1C(=O)O)c1ccc2c(c1)nc(CN1CCC(c3cccc(OCc4ccc(Cl)cc4F)n3)CC1)n2C[C@@H]1CCO1` [Compound 45], it took 1.39 nM to reach a half-maximal effect (EC50).

`COC(=O)[C@@H]1CC(F)(F)CN1C(=O)CNC(=O)c1ccc2c(c1)nc(CN1CC=C(c3cccc(OCc4ccc(Cl)cc4F)n3)CC1)n2C[C@@H]1CCO1` [Compound 69] registered an EC50 of 70.5 nM.

For the compound `Cc1cc2c(Cl)ccc(COc3cccc(C4=CCN(Cc5nc6cc(C(=O)Nc7cc(C)c8[nH]nc(C(F)F)c8c7)ccc6n5C[C@@H]5CCO5)CC4)n3)c2o1` [Compound 349], the midpoint of the response, the EC50, lay at 1.61 nM. This EC50 lies about 44-fold lower than the previous one.

The compound `Cc1cc(NC(=O)c2ccc3c(c2)nc(CN2CCC(c4cccc(OCc5cc(F)c(C#N)s5)n4)CC2)n3C[C@@H]2CCO2)cc2c(C(F)(F)F)n[nH]c12` [Compound 377] displayed an EC50 of 3.41 nM. This EC50 is about 2.1-fold higher than that of the compound before.

`O=C(Nc1ccc2[nH]nc(C3CC3)c2c1)c1ccc2c(c1)nc(CN1CCC(c3cccc(OCc4ccc(Cl)cc4F)n3)CC1)n2C[C@@H]1CCO1` [Compound 112] showed an EC50 of 6.18 nM.

In turn, `COC(=O)[C@@H]1CC(F)(F)CN1C(=O)[C@H](C)NC(=O)c1ccc2c(c1)nc(CN1CC=C(c3cccc(OCc4ccc(Cl)cc4F)n3)CC1)n2C[C@@H]1CCO1` [Compound 71] had a concentration for a half-maximal effect (EC50) of 132 nM.

`Cc1n[nH]c2ccc(NC(=O)c3ccc4c(c3)nc(CN3CC=C(c5cccc(OCc6ccc(C#N)c7ccccc67)n5)CC3)n4C[C@@H]3CCO3)cc12` [Compound 366]: the EC50 amounted to 5.97 nM.

Take `COCCn1c(C2CC23CCN(c2cccc(OCc4ccc(C#N)cc4F)n2)CC3)nc2ccc(C(=O)Nc3ccc4[nH]nc(C)c4c3)cc21` (centres unmarked) [Compound 8]: the midpoint of the response, the EC50, lay at 1.33 nM.

Take `N#Cc1ccc(COc2cccc(C3=CCN(Cc4nc5cc(NC(=O)c6cc(F)c7c(c6)C6(CC6)C(=O)N7)ccc5n4C[C@@H]4CCO4)CC3)n2)c(F)c1` [Compound 227]: the EC50 amounted to 0.22 nM.

Compound `O=C(Nc1ccn2nccc2c1)c1ccc2c(c1)nc(CN1CCC(c3cccc(OCc4ccc(Cl)cc4F)n3)CC1)n2CC1CCO1` (centres unmarked) [Compound 96] registered an EC50 of 74.3 nM. This EC50 lies about 340-fold higher than the previous one.

Compound `Cc1n[nH]c2c(C(F)(F)F)cc(NC(=O)c3ccc4c(c3)nc(CN3CCC(c5cccc(OCc6ccc(Cl)cc6F)n5)CC3)n4C[C@@H]3CCO3)cc12` [Compound 106] showed an EC50 of 2.31 nM.

Compound `Cc1n[nH]c2c(F)cc(NC(=O)c3ccc4c(c3)nc(CN3CC=C(c5cccc(OCc6cc(F)c(C#N)s6)n5)CC3)n4C[C@@H]3CCO3)cc12` [Compound 363] returned an EC50 of 0.41 nM.

The compound `Cc1cc(NC(=O)c2ccc3c(c2)nc(CN2CC=C(c4cccc(OCc5ccc(C#N)cc5F)n4)CC2)n3C[C@@H]2CCO2)cc2c(C(F)F)n[nH]c12` [Compound 183] registered a 50% effective concentration (EC50) of 0.76 nM.

On to `Cc1n[nH]c2c(C(F)F)cc(C(=O)Nc3ccc4c(c3)nc(CN3CC=C(c5cccc(OCc6ccc(Cl)cc6F)n5)CC3)n4C[C@@H]3CCO3)cc12` [Compound 220], for which it took 0.44 nM to reach a half-maximal effect (EC50).

In the case of `Cn1c(=O)[nH]c2ccc(NC(=O)c3ccc4c(c3)nc(CN3CCC(c5cccc(OCc6ccc(Cl)cc6F)n5)CC3)n4C[C@@H]3CCO3)cc21` [Compound 91], the half-maximal effective concentration (EC50) stood at 26.2 nM.

For `Cc1n[nH]c2c(C)cc(NC(=O)c3ccc4c(c3)nc(CN3CC=C(c5cccc(OCc6cc(F)c(C#N)s6)n5)CC3)n4C[C@@H]3CCO3)cc12` [Compound 364], a half-maximal response (EC50) required 0.38 nM.

`Cc1n[nH]c2cnc(C(=O)Nc3ccc4c(c3)nc(CN3CC=C(c5cccc(OCc6ccc(Cl)cc6F)n5)CC3)n4C[C@@H]3CCO3)cc12` [Compound 237] registered an EC50 of 8.71 nM.

The compound `Cc1n[nH]c2c(Cl)cc(C(=O)Nc3ccc4c(c3)nc(CN3CC=C(c5cccc(OCc6ccc(Cl)cc6F)n5)CC3)n4C[C@@H]3CCO3)cc12` [Compound 214] showed a concentration giving a half-maximal response (EC50) of 1.21 nM.

The compound `O=C(NCC(=O)N1C[C@@H](F)C[C@H]1C(=O)O)c1ccc2c(c1)nc(CN1CCC(c3cccc(OCc4ccc(Cl)cn4)n3)CC1)n2C[C@@H]1CCO1` [Compound 48] showed an EC50 of 4.36 nM.

For the compound `Cc1n[nH]c2cc(F)c(NC(=O)c3ccc4c(c3)nc(CN3CCC(c5cccc(OCc6ccc(Cl)cc6F)n5)CC3)n4C[C@@H]3CCO3)cc12` [Compound 123], the EC50 is 5.49 nM.

On to `Cc1n[nH]c2c(F)cc(NC(=O)c3ccc4nc(CN5CC=C(c6cccc(OCc7ccc(C#N)cc7F)n6)CC5)n(CC5CCO5)c4c3)cc12` (centres unmarked) [Compound 274], for which the 50% effective concentration (EC50) came out at 1.65 nM.

Compound `O=C(Nc1ccn2ncc(Cl)c2c1)c1ccc2c(c1)nc(CN1CCC(c3cccc(OCc4ccc(Cl)cc4F)n3)CC1)n2CC1CCO1` (centres unmarked) [Compound 97] yielded an EC50 of 140 nM.

As for `COCCn1c(CN2CCC(c3cccc(OCc4ccc(Cl)cc4F)n3)CC2)nc2cc(C(=O)NCc3ccc4[nH]ccc4c3)ccc21` [Compound 21], the EC50 is 160 nM.

The compound `COCCn1c(CN2CCC(c3cccc(OCc4ccc(Cl)cc4F)n3)CC2)nc2cc(C(=O)NCc3ccc(O)c(C(=O)O)c3)ccc21` [Compound 37] gave a 50% effective concentration (EC50) of 106 nM.

In the case of `O=C(Nc1ccc2[nH]ncc2c1)c1ccc2c(c1)nc(CN1CCC(c3cccc(OCc4ccc(Cl)cc4F)n3)CC1)n2C[C@@H]1CCO1` [Compound 87], the EC50 is 10.1 nM.

`COC(=O)[C@@H]1CC(F)(F)CN1C(=O)CNC(=O)c1ccc2c(c1)nc(CN1CCC(c3cccc(OCc4ccc(Cl)cc4F)n3)CC1)n2C[C@@H]1CCO1` [Compound 64] showed an EC50 of 151 nM. Compared with the last compound, the EC50 is about 15-fold higher.

For the compound `Cc1n[nH]c2ccc(C(=O)Nc3ccc4c(c3)nc(C3CC35CCN(c3cccc(OCc6ccc(Cl)cc6F)n3)CC5)n4CC3CCO3)cc12` (centres unmarked) [Compound 246], the response was half-maximal at 0.91 nM (EC50).
